Legend:
[1] = compound: CC(=O)c1c(C)c2cnc(Nc3ccc(N4CCNCC4)cn3)nc2n(C2CCCC2)c1=O; assay: increase in dead-cell fraction, 72 h; higher = more death;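 note: breast cancer cell lines in 384-well plates, stained with Hoechst plus LIVE/DEAD far red dye and imaged, cells above an LDR intensity threshold counted dead, Hoechst-negative corpses included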
[2] = compound: CCc1cnn2c(NCc3ccc[n+]([O-])c3)cc(N3CCCC[C@H]3CCO)nc12; assay: as above
[3] = compound: CCN1CCN(Cc2ccc(Nc3ncc(F)c(-c4cc(F)c5nc(C)n(C(C)C)c5c4)n3)nc2)CC1; assay: as above
Neratinib/HKI272 = compound: CCOc1cc2ncc(C#N)c(Nc3ccc(OCc4ccccn4)c(Cl)c3)c2cc1NC(=O)/C=C/CN(C)C [Neratinib/HKI272]; assay: as above
BSJ-03-123 = compound: CC(=O)c1c(C)c2cnc(Nc3ccc(N4CCN(CCOCCOCCOCCNC(=O)COc5cccc6c5C(=O)N(C5CCC(=O)NC5=O)C6=O)CC4)cn3)nc2n(C2CCCC2)c1=O [BSJ-03-123]; assay: as above
LEE011/Ribociclib = compound: CN(C)C(=O)c1cc2cnc(Nc3ccc(N4CCNCC4)cn3)nc2n1C1CCCC1 [LEE011/Ribociclib]; assay: as above
Flavopiridol = compound: CN1CC[C@H](c2c(O)cc(O)c3c(=O)cc(-c4ccccc4Cl)oc23)[C@H](O)C1 [Flavopiridol]; assay: as above
THZ1 = compound: CN(C)C/C=C/C(=O)Nc1ccc(C(=O)Nc2cccc(Nc3ncc(Cl)c(-c4c[nH]c5ccccc45)n3)c2)cc1 [THZ1]; assay: as above
[4] = compound: COc1ccc2c(c1)[C@]1(C[C@H]1c1ccc3c(/C=C/c4ccc(CN5C[C@@H](C)O[C@@H](C)C5)cc4)n[nH]c3c1)C(=O)N2
Vorinostat = compound: O=C(CCCCCCC(=O)Nc1ccccc1)NO [Vorinostat]
AZD2014 = compound: CNC(=O)c1cccc(-c2ccc3c(N4CCOC[C@@H]4C)nc(N4CCOC[C@@H]4C)nc3n2)c1 [AZD2014]
AZD6738 = compound: C[C@@H]1COCCN1c1cc(C2([S@](C)(=N)=O)CC2)nc(-c2cc[nH]c3nccc2-3)n1 [AZD6738]
[5] = compound: CCN1CCN(Cc2ccc(Nc3ncc(F)c(-c4cc(F)c5nc(C)n(C(C)C)c5c4)n3)nc2)CC1
BSJ-01-175 = compound: CN(C)C/C=C/C(=O)Nc1ccc(O[C@@H]2CCC[C@@H](Nc3ncc(Cl)c(-c4c[nH]c5ccccc45)n3)C2)cc1 [BSJ-01-175]
Ipatasertib/GDC0068 = compound: CC(C)NC[C@@H](C(=O)N1CCN(c2ncnc3c2[C@H](C)C[C@H]3O)CC1)c1ccc(Cl)cc1 [Ipatasertib/GDC0068]
[6] = compound: CCC1=CN=CN=C1N2CCN(CC2)CC3=NC4=C(N3)C=C(C=C4)C(F)(F)F
Tivantinib/ARQ197 = compound: O=C1NC(=O)[C@@H](c2cn3c4c(cccc24)CCC3)[C@@H]1c1c[nH]c2ccccc12 [Tivantinib/ARQ197]
[7] = compound: CC(=O)Nc1cccc(-n2c(=O)n(C3CC3)c(=O)c3c(Nc4ccc(I)cc4F)n(C)c(=O)c(C)c32)c1
AZD7762 = compound: NC(=O)Nc1cc(-c2cccc(F)c2)sc1C(=O)N[C@H]1CCCNC1 [AZD7762]
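Throughout, for GR50, 72 h: breast cancer and non-malignant breast epithelial cell lines, Deep Dye Drop or Dye Drop imaging, nine half-log doses, GR normalized to time-zero plates and DMSO-only controls.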

For BT549, the “increase in dead-cell fraction” value ([1]; 0.0003162 µM) was 0.003, the “increase in dead-cell fraction” value ([1]; 0.001 µM) was 0.0092 and the “increase in dead-cell fraction” value ([1]; 0.003162 µM) was 0.0021. For the same cell line, the “increase in dead-cell fraction” value ([1]; 0.01 µM) was 0.0028, the “increase in dead-cell fraction” value ([1]; 0.03162 µM) was -0.0008 and the “increase in dead-cell fraction” value ([1]; 0.1 µM) was 0.0025. For the same cell line, the “increase in dead-cell fraction” value ([1]; 0.3162 µM) was -0.0015, the “increase in dead-cell fraction” value ([1]; 1 µM) was -0.0066 and the “increase in dead-cell fraction” value ([1]; 3.162 µM) was -0.0162. For the same cell line, the “increase in dead-cell fraction” value ([2]; 0.0001 µM) was -0.0017, the “increase in dead-cell fraction” value ([2]; 0.0003162 µM) was -0.0119 and the “increase in dead-cell fraction” value ([2]; 0.001 µM) was 0.0095. For the same cell line, the “increase in dead-cell fraction” value ([2]; 0.003162 µM) was 0.0067, the “increase in dead-cell fraction” value ([2]; 0.01 µM) was 0.0717 and the “increase in dead-cell fraction” value ([2]; 0.03162 µM) was 0.309. For the same cell line, the “increase in dead-cell fraction” value ([2]; 0.1 µM) was 0.338, the “increase in dead-cell fraction” value ([2]; 0.3162 µM) was 0.295 and the “increase in dead-cell fraction” value ([2]; 1 µM) was 0.346. The “increase in dead-cell fraction” value ([3]; 0.001 µM) was -0.0017, the “increase in dead-cell fraction” value ([3]; 0.003162 µM) was -0.0033 and the “increase in dead-cell fraction” value ([3]; 0.01 µM) was 0.0079. The “increase in dead-cell fraction” value ([3]; 0.03162 µM) was -0.0016, the “increase in dead-cell fraction” value ([3]; 0.1 µM) was 0.0009 and the “increase in dead-cell fraction” value ([3]; 0.3162 µM) was -0.01. The “increase in dead-cell fraction” value ([3]; 1 µM) was 0.0019, the “increase in dead-cell fraction” value ([3]; 3.162 µM) was 0.024 and the “increase in dead-cell fraction” value ([3]; 10 µM) was 0.139. The “increase in dead-cell fraction” value (Neratinib/HKI272; 0.0003162 µM) was 0.0052, the “increase in dead-cell fraction” value (Neratinib/HKI272; 0.001 µM) was 0.0037 and the “increase in dead-cell fraction” value (Neratinib/HKI272; 0.003162 µM) was 0.0077. For the same cell line, the “increase in dead-cell fraction” value (Neratinib/HKI272; 0.01 µM) was -0.001, the “increase in dead-cell fraction” value (Neratinib/HKI272; 0.03162 µM) was 0.0074 and the “increase in dead-cell fraction” value (Neratinib/HKI272; 0.1 µM) was -0.0081. The “increase in dead-cell fraction” value (Neratinib/HKI272; 0.3162 µM) was 0.0066, the “increase in dead-cell fraction” value (Neratinib/HKI272; 1 µM) was 0.0035 and the “increase in dead-cell fraction” value (Neratinib/HKI272; 3.162 µM) was 0.102. The “increase in dead-cell fraction” value (BSJ-03-123; 0.001 µM) was -0.0011, the “increase in dead-cell fraction” value (BSJ-03-123; 0.003162 µM) was -0.0008 and the “increase in dead-cell fraction” value (BSJ-03-123; 0.01 µM) was -0.0008. For the same cell line, the “increase in dead-cell fraction” value (BSJ-03-123; 0.03162 µM) was 0.0023, the “increase in dead-cell fraction” value (BSJ-03-123; 0.1 µM) was 0.0017 and the “increase in dead-cell fraction” value (BSJ-03-123; 0.3162 µM) was -0.0023. The “increase in dead-cell fraction” value (BSJ-03-123; 1 µM) was 0.0009, the “increase in dead-cell fraction” value (BSJ-03-123; 3.162 µM) was 0.0085 and the “increase in dead-cell fraction” value (BSJ-03-123; 10 µM) was 0.184. For the same cell line, the “increase in dead-cell fraction” value (LEE011/Ribociclib; 0.001 µM) was 0.0033, the “increase in dead-cell fraction” value (LEE011/Ribociclib; 0.003162 µM) was -0.0034 and the “increase in dead-cell fraction” value (LEE011/Ribociclib; 0.01 µM) was -0.0015. The “increase in dead-cell fraction” value (LEE011/Ribociclib; 0.03162 µM) was -0.0014, the “increase in dead-cell fraction” value (LEE011/Ribociclib; 0.1 µM) was -0.0023 and the “increase in dead-cell fraction” value (LEE011/Ribociclib; 0.3162 µM) was -0.0023. The “increase in dead-cell fraction” value (LEE011/Ribociclib; 1 µM) was -0.0003, the “increase in dead-cell fraction” value (LEE011/Ribociclib; 3.162 µM) was 0.0011 and the “increase in dead-cell fraction” value (LEE011/Ribociclib; 10 µM) was -0.0008. For the same cell line, the “increase in dead-cell fraction” value (Flavopiridol; 0.0001 µM) was 0.0048, the “increase in dead-cell fraction” value (Flavopiridol; 0.0003162 µM) was -0.0007 and the “increase in dead-cell fraction” value (Flavopiridol; 0.001 µM) was -0.0015. The “increase in dead-cell fraction” value (Flavopiridol; 0.003162 µM) was 0.0036, the “increase in dead-cell fraction” value (Flavopiridol; 0.01 µM) was -0.0014 and the “increase in dead-cell fraction” value (Flavopiridol; 0.03162 µM) was 0.0045. The “increase in dead-cell fraction” value (Flavopiridol; 0.1 µM) was 0.0204, the “increase in dead-cell fraction” value (Flavopiridol; 0.3162 µM) was 0.164 and the “increase in dead-cell fraction” value (Flavopiridol; 1 µM) was 0.514. The “increase in dead-cell fraction” value (THZ1; 0.0001 µM) was -0.0033, the “increase in dead-cell fraction” value (THZ1; 0.0003162 µM) was -0.0013 and the “increase in dead-cell fraction” value (THZ1; 0.001 µM) was -0.0005. The “increase in dead-cell fraction” value (THZ1; 0.003162 µM) was -0.0025, the “increase in dead-cell fraction” value (THZ1; 0.01 µM) was 0.0024 and the “increase in dead-cell fraction” value (THZ1; 0.03162 µM) was 0.0096. The “increase in dead-cell fraction” value (THZ1; 0.1 µM) was 0.112, the “increase in dead-cell fraction” value (THZ1; 0.3162 µM) was 0.179 and the “increase in dead-cell fraction” value (THZ1; 1 µM) was 0.27. For the same cell line, the “GR50, 72 h” value [4] was 0.00315 µM, the “GR50, 72 h” value (Vorinostat) was 2.37 µM and the “GR50, 72 h” value (AZD2014) was 0.157 µM. For the same cell line, the “GR50, 72 h” value (AZD6738) was 3.97 µM, the “GR50, 72 h” value [5] was 3.97 µM and the “GR50, 72 h” value (BSJ-01-175) was 0.737 µM. For the same cell line, the “GR50, 72 h” value (Ipatasertib/GDC0068) was over 10 µM, the “GR50, 72 h” value [6] was over 10 µM and the “GR50, 72 h” value (Tivantinib/ARQ197) was 0.582 µM. For the same cell line, the “GR50, 72 h” value [7] was over 1 µM and the “GR50, 72 h” value (AZD7762) was 0.0668 µM.

— the supplement of paper PMC9663587
